# Measurements as given in article PMC11530130, “Peripherally restricted PICK1 inhibitor mPD5 ameliorates pain behaviors in murine inflammatory and neuropathic pain models” (JCI Insight, 2024).
# Where “and” joins values, the source holds several entries; their conditions need not be identical. Equal entries are not always repeated.
# Tests used:
# naive mice = experiment: Single exposure place preference (sePP), naive mice; format: in vivo, mouse
# Experimental: On days 6-8, the escape hole was moved
# 90 degrees, and all mice went through the second bout of training. On day nine, a second probe trial was performed testing the reversal learning of the mice.
# Cancer induced bone pain was induced as described in the “Induction of cancer induced bone pain (CIBP model)"-section. For the assessment of limb use, all mice from one cage were placed in an empty transparent plastic box and left for ten min to habituate. One mouse at a time was moved by tunnel handling or scooping to an identical plastic box for the limb use test. […]
# gait, 3 Insignificant limping, 2 Significant limping and shift in bodyweight towards the healthy limb 1 Significant limping and partial lack of use of ipsilateral leg 0 Total lack of use of ipsilateral leg. A score of 0 was used as a humane endpoint. Urine and faeces were cleaned from the plastic box with a dry paper towel between mice from the same cage, and a new plastic box was used for mice from different cages. The limb use test was video filmed for later […]
# Assessment of static weight bearing. […]
# Initial perception of the drugs was measured by single exposure place preference experiments performed in an elongated three compartment apparatus (67.5 cm x 24 cm) with a biased design of different floor textures and wall patterns and a neutral zone in the middle. […]
# [1] = Flow-induced dispersion analysis (FIDA), critical micelle concentration; format: physicochemical
# Excerpt: Supplemental Figure S2. FIDA analysis of mPD5. (A) Molecular properties of mPD5.
# (B) Taylorgrams for different concentrations of mPD5 using an uncoated capillary.
# (C) Taylorgrams for different concentrations of mPD5 using a Poly-L-ornithine capillary.
# (D) Taylorgrams for different concentrations of mPD5 using an HS-coated capillary.
# (E) Graphical representation of mPD5 absorption using different coating strategies (B-D).
# (F) Binding isotherm of mPD5 combining optimal coatings for different concentrations results in a CMC of 12 µM. […]
# FIDA was carried out using a fluorescently labelled (AF488-NHS) mPD5 analogue, and fluorescence was recorded at 488 nm using mPD5-AF488 (25% labelling efficiency) as a tracer (100 nM), using the standard protocol recommended by the manufacturer, in short, mPD5 and mPD5-AF488 (25% labelling efficiency) was loaded to the FIDA1 instrument, and peptide sample was injected into the capillary followed by a buffer injection. The diffusion of the peptide could then be observed using 488 nm fluorescence, and the hydrodynamic radius was calculated using the FIDA software 2.0 using a single Gaussian distribution fit, at 75% and curve smoothing. […]
# Concentration series of mPD5 ranging from 0.18 mg/mL to 9.37 mg/mL was prepared in buffer containing 50 mM Tris-HCl (pH 7.4) and 125 mM NaCl. Samples were measured at the P12 SAXS Beamline, PetraIII, DESY, Hamburg Germany (2). […]
compound,measurement,setting,value
"CCCCCCCCCCCCCC(=O)N(CCOCCOCCC(=O)N[C@@H](Cc1c[nH]cn1)C(=O)N[C@@H](Cc1c[nH]c2ccccc12)C(=O)N[C@@H](CC(C)C)C(=O)N[C@@H](CCCCN)C(=O)N[C@H](C(=O)O)C(C)C)CCOCCOCCC(=O)N[C@@H](Cc1c[nH]cn1)C(=O)N[C@@H](Cc1c[nH]c2ccccc12)C(=O)N[C@@H](CC(C)C)C(=O)N[C@@H](CCCCN)C(=O)N[C@H](C(=O)O)C(C)C [mPD5, myristoyl-NPEG4-(HWLKV)2]","time spent in the paired compartment, individual mice",naive mice; naive mice conditioned with 30 μmol/kg,310.53 and 374.063 and 737.926 and 573.794 and 360.996 and 424.662 and 697.46
same,"preference compared to PBS (intrinsic rewarding properties, sePP)","naive mice; naive mice, 30 μmol/kg",did not show any preference
same,critical micelle concentration (CMC),"[1]; FIDA binding isotherm, optimal coatings combined",12 µM
same,hydrodynamic radius (RH),"[1]; FIDA, micellar mPD5",≈ 30 Å
